Laboratory results reported in US6187572A, “Method of inactivation of viral and bacterial blood contaminants” (Baxter International Inc., priority 1993, dated 2001).
Structures can show the parent of a compound that is named as a salt. Where two headings read alike, the source gives them in different places.

Assays:
[1] = tested on: cell damage; experiment: Cell damage by derivatives with free hydrogen atoms on the ammonium group; assay type: cell-based; details: words
[2] = tested on: platelets; assay type: cell-based
Procedure: The viral inactivation values and in vitro properties of platelets subjected to viral inactivation treatment using various derivatives of psoralen are summarized in Table 1.
2 mL PRP samples (plastic disposable petri dishes) containing 0.1 mg/mL
sensitizer were irradiated with UVA for 6 min. (1.19 J/cm^2). The
intensity of UVA radiation at sample position was measured at 3.3
mW/cm^2. The data was obtained from three separate experiments using
different platelet concentrates. Values are mean ± SD.

[3] = tested on: Salmonella typhimurium TA1538; experiment: Ames mutagenicity, plate incorporation assay; assay type: cell-based
Procedure: (§1) The standard Ames mutagenicity test using salmonella mutants was performed on brominated sensitizer 8B at 0.6 mg/ml.

[4] = tested on: Salmonella typhimurium TA98; experiment: Ames mutagenicity, plate incorporation assay; assay type: cell-based
Procedure: as §1

[5] = tested on: Salmonella typhimurium TA100; experiment: Ames mutagenicity, plate incorporation assay; assay type: cell-based
Procedure: as §1

[6] = tested on: Salmonella typhimurium TA1537; experiment: Ames mutagenicity, plate incorporation assay; assay type: cell-based
Procedure: as §1

[7] = tested on: Salmonella typhimurium TA1535; experiment: Ames mutagenicity, plate incorporation assay; assay type: cell-based
Procedure: as §1

[8] = tested on: red cells; experiment: Red cell in vitro properties after viral inactivation treatment (UVA); assay type: cell-based; design: MCV / MCH / MCHC: unit not given here; details: for % Hemichrome / % Met Hb. / % Oxy Hb. / MCH / MCHC / MCV / DI Max % control: Treated; for % Hemichrome / % Met Hb. / % Oxy Hb. / MCH / MCHC / MCV: UVA 6 hours; for DI Max % control: ektacytometry
Procedure: (§2) Units of packed red cells were transferred to Stericon red cell freezing bags and the hematocrits were adjusted to 60% with PBS. The samples were spiked with 5×10^6 PFU/ml .phi.6 phage and 0.3 mg/mL sensitizer 8B. The contents of the bag were exposed to UVA light from top (3.6 mW/cm^2) and bottom (3.4 mW/cm^2) for 6 hours (151.2 J/cm^2). The samples were mixed continuously during UVA exposure on an orbital shaker. The final viral titre in the sample was determined by the plaque method. In vitro biochemical and biophysical properties of treated red cells were monitored for 7 days following the treatment.
DI Max, Deformability index by ektacytometry
(§3) Viral inactivation treatment was carried out in packed red cells (full
(§4) units, 60% Hct.) containing model virus (.phi.6 phage) and 8B sensitizer
(§5) (0.3 mg/mL) in a Sericon red cells freezing bag (altered). The bags were
(§6) irradiated from top (3.6 mW/cm^2) and bottom (3.4 mW/cm^2) in a
(§7) home made reactor for 6 hours (151.2 J/cm^2). The sample was mixed
(§8) continuously during UVA exposure on a orbital shaker.
Data was collected from 3 separate experiments and the values are mean

[9] = tested on: single unit platelet concentrates; experiment: Platelet in vitro properties in single unit platelet concentrates after UVA treatment; assay type: cell-based; design: ADP Agg. / Collagen / HSR: unit not given here; details: for ADP Agg. / Cell count / Collagen / HSR / Morphology / pH: Treated, 0.03 mg/mL, UVA 10 min
Procedure: (§9) Single unit platelet concentrates were obtained 24 hours after collection from certified blood banks. The platelets were subjected to soft spin to remove residual RBC and about 6 logs of .phi.6 phage and sensitizer 8B were added in PBS solution to obtain 0.03 mg/ml final sensitizer concentration. The samples were transferred to Stericonpolyolefin bag (which transmits 60% of UVA light) and irradiated from top (3.6 mW/cm^2)and bottom (3.4 mW/cm^2) in a home made reactor for 10 min. The bags were continuously mixed on extended glass platform attached to orbital shaker. The viral inactivation values and in vitro properties of platelet concentrates were monitored for 2 days after the treatment.
(§10) Single units of platelet concentrates in Cryocyte ™ bag containing 0.03
(§11) mg/mL #8B sensitizer (Appendix I) were irradiated from top (3.6
(§12) mW/cm^2) and bottom (3.4 mW/cm^2) using UVA radiation in a home
(§13) made reactor for 10 min (4.2 J/cm^2). After the treatment platelet
(§14) concentrates were transferred into original platelet containers and stored
(§15) in a platelet incubator for indicated period of time.
(§16) Platelet viability assays were carried out immediately after treatment and
(§17) reduction in treated samples was determined by the plaque assay. The
(§18) values are mean ±S.D (n = 3)

[10] = tested on: .phi.6 phage; experiment: Viral inactivation in single unit platelet concentrates (UVA); assay type: cell-based; details: light or radiation study, 10 min
Procedure: as §9, §10, §11, §12, §13, §14, §15, §16
following 24 & 48 hours storage in a platelet incubator. The viral
as §17, §18

[11] = tested on: λ; experiment: Inactivation of viruses in human plasma and bovine serum with UV activation; assay type: cell-based, λ phage; details: light or radiation study, 0.5 h, Fetal bovine serum, 0.03 mg/ml, UVA 30 min (8.4 J/cm^2), read-out: Viral Reduction (log)
Procedure: Viral inactivation in FBS was carried out in 100 ml serum samples in 225 cm^2 tissue culture flask in the presence of sensitizer 8B (0.03 mg/ml). The sample was exposed to UVA light from top (3.6 mW/cm^2) and bottom (3.4 mW/cm^2) while continuously mixing on an orbital shaker for 30 min. (8.4 J/cm^2). Human plasma was irradiated in a Pyrex glass photolysis cell in the presence of sensitizer 8 (0.1 mg/ml) for 5 min. Inactivation of various bacteriophages were carried out using brominated psoralens in combination with UVA light. The results in Table 5 clearly indicate that 5-7 logs of viral reduction was obtained with various phage (enveloped and non-enveloped) in human plasma fractions and fetal bovine serum products.

[12] = tested on: .phi.6 phage; experiment: Comparison of viral inactivation efficiencies of brominated and non-brominated sensitizers in platelets (UVA); assay type: cell-based; details: 8B versus 8C, 0.1 mg/ml, UVA 3.3 mW/cm^2
Procedure: To test the viral inactivation efficiency of brominated sensitizers, platelet preparations (2 ml, PRP) were spiked with .phi.6 phage and brominated psoralen (8B) and non-brominated psoralen(8C) were added to obtain final sensitizer concentration of 0.1 mg/ml. The samples were exposed to UVA light in a home made reactor consisting of 4 UVA lamps for the indicated time periods. The petri dishes containing samples were mixed on an orbital shaker during UVA exposure. The UVA light intensity at the sample position was measured at 3.3 mW/cm^2. The residual viral titre after each time point was measured by plaque method. The viral reduction values are illustrated in FIG. 26.

[13] = tested on: .phi.6 phage; experiment: Viral inactivation in red blood cells (UVA, full units); assay type: cell-based; details: Erythrocyte, light or radiation study
Procedure: as §2, §3, §4, §5, §6, §7, §8

[14] = tested on: salmonella mutants; experiment: Ames mutagenicity, overall; assay type: cell-based, Salmonella typhimurium; details: 0.6 mg/ml; words
Procedure: as §1

Cc1oc2c(C)c3oc(=O)cc(C)c3cc2c1CN [AMT, 4'-aminomethyl-4,5',8-trimethylpsoralen]
cell damage [1]: unacceptable levels of cell damage
hypotonic shock response (HSR) and ADP aggregation response relative to the control [2]: substantial reduction

CC[N+](CC)(CC)CCCOc1c2occc2c(Br)c2ccc(=O)oc12 [Sensitizer #8B, 5-Bromo-8 (γ-Triethylaminopropyloxy) Psoralen Hydrochloride]
Number of Revertan Colonies ([3]; TA1538, with S-9, average of duplicate plates): 25
Number of Revertan Colonies ([3]; TA1538, without S-9, average of duplicate plates): 22
Number of Revertan Colonies ([4]; TA98, with S-9, average of duplicate plates): 83
Number of Revertan Colonies ([4]; TA98, without S-9, average of duplicate plates): 55
Number of Revertan Colonies ([5]; TA100, with S-9, average of duplicate plates): 245
Number of Revertan Colonies ([5]; TA100, without S-9, average of duplicate plates): 164
Number of Revertan Colonies ([6]; TA1537, with S-9, average of duplicate plates): 26
Number of Revertan Colonies ([6]; TA1537, without S-9, average of duplicate plates): 36
Number of Revertan Colonies ([7]; TA1535, with S-9, average of duplicate plates): 197
Number of Revertan Colonies ([7]; TA1535, without S-9, average of duplicate plates): 173
in vitro biochemical and biophysical properties of red cells ([8]; Example 16 text, words): without any significant alterations
% Hemichrome ([8]; Day 1, 0.3 mg/mL): 1.9 ± 1.5%
% Met Hb. ([8]; Day 1, 0.3 mg/mL): 2.9 ± 1.5%
% Oxy Hb. ([8]; Day 1, 0.3 mg/mL): 95.2 ± 0.1%
MCH ([8]; Day 1, 0.3 mg/mL): 30.9 ± 0.1
MCHC ([8]; Day 1, 0.3 mg/mL): 34.9 ± 0.4
MCV ([8]; Day 1, 0.3 mg/mL): 88.8 ± 2.5
DI Max % control ([8]; Day 1, 0.3 mg/mL): 97.4 ± 3.6 % control
% Hemichrome ([8]; Day 2, 0.3 mg/mL): 0.6 ± 0.9%
% Met Hb. ([8]; Day 2, 0.3 mg/mL): 1.7 ± 1.7%
% Oxy Hb. ([8]; Day 2, 0.3 mg/mL): 97.7 ± 1.7%
MCH ([8]; Day 2, 0.3 mg/mL): 30.3 ± 0.4
MCHC ([8]; Day 2, 0.3 mg/mL): 33.8 ± 0.9
MCV ([8]; Day 2, 0.3 mg/mL): 89.8 ± 1.7
DI Max % control ([8]; Day 2, 0.3 mg/mL): 99.6 ± 3.8 % control
% Hemichrome ([8]; Day 7, 0.3 mg/mL): 0.2 ± 0.2%
% Met Hb. ([8]; Day 7, 0.3 mg/mL): 1.4 ± 1.2%
% Oxy Hb. ([8]; Day 7, 0.3 mg/mL): 98.5 ± 1.0%
MCH ([8]; Day 7, 0.3 mg/mL): 30.1 ± 0.8
MCHC ([8]; Day 7, 0.3 mg/mL): 33.6 ± 1.6
MCV ([8]; Day 7, 0.3 mg/mL): 89.8 ± 1.7
DI Max % control ([8]; Day 7, 0.3 mg/mL): 99.0 ± 5.9 % control
platelet in vitro properties ([9]; Example 15 text, words): excellent retention of platelet in vitro properties
ADP Agg. ([9]; 0 Hour): 43 ± 12
Cell count ([9]; 0 Hour): 474 ± 20
Collagen ([9]; 0 Hour): 72 ± 3
HSR ([9]; 0 Hour): 65 ± 8
Morphology ([9]; 0 Hour): 233 ± 17
pH ([9]; 0 Hour): 7.2 ± 0.1
ADP Agg. ([9]; 24 Hours): 34 ± 19
Cell count ([9]; 24 Hours): 499 ± 50
Collagen ([9]; 24 Hours): 65 ± 3
HSR ([9]; 24 Hours): 65 ± 6
Morphology ([9]; 24 Hours): 230 ± 19
pH ([9]; 24 Hours): 7.1 ± 0.2
Collagen ([9]; 43 Hours): 60 ± 4
pH ([9]; 43 Hours): 6.8 ± 0.1
HSR ([9]; 48 Hours): 70 ± 6
log reduction at 30 µg/mL ([10]; Treated, 0 Hour, 0.03 mg/mL, UVA 10 min (4.2 J/cm^2), n = 4, read-out: V.I): 5.3 ± 0.2
log reduction at 30 µg/mL ([10]; read-out: viral reduction): > 5.3
log reduction at 30 µg/mL [11]: 6.6
improvement in the level of viral inactivation (brominated versus non-brominated) [12]: ≤ 400 fold
log reduction at 300 µg/mL ([13]; 6 h, read-out: viral reduction): > 6.6
log reduction at 300 µg/mL ([13]; Treated, Day 1, 0.3 mg/mL, UVA 6 hours (151.2 J/cm^2), read-out: Viral Reduction (log)): 6.6 ± 0.1
mutagenicity [14]: non-mutagenic
